Drawing on PMC9927571, “Antibacterial Activity of an FtsZ Inhibitor Celastrol and Its Synergistic Effect with Vancomycin against Enterococci In Vitro and In Vivo” (Microbiology Spectrum, 2023), this text covers Kd for one molecule.

Each structure is given as a SMILES string.

In the experiment the target is T1, FtsZ (Filamenting temperature-sensitive mutant Z) (Enterococcus faecalis, UniProt O08439).
T1 construct: recombinant E. faecalis FtsZ protein (FTZ04-B)
The experiment in a line: SPR (Biacore T200, FtsZ immobilized on CM5 chip); also GTPase inhibition of E. faecalis FtsZ, IC50 […]. The class given is binding.

T1 sequence (O08439 whole entry, change not shown): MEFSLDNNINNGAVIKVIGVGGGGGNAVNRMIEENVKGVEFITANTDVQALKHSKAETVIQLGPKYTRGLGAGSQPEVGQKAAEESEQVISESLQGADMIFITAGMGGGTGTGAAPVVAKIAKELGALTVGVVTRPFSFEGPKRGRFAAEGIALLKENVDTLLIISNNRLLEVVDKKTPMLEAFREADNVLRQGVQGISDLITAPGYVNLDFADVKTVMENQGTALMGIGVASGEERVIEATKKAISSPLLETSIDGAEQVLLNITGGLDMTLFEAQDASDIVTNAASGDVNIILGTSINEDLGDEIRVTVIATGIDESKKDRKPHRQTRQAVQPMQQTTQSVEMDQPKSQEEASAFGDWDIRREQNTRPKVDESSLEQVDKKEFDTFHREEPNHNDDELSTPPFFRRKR

In the case of `CC1=C(O)C(=O)C=C2C1=CC=C1[C@@]2(C)CC[C@@]2(C)[C@@H]3C[C@](C)(C(=O)O)CC[C@]3(C)CC[C@]12C` [CEL, celastrol], the dissociation constant (Kd) amounted to 2.45 µM.

As a reminder, the Kd is the concentration at which binding is half-saturated.
